Assay results as given in ChEMBL document CHEMBL1201862, “PubChem BioAssay data set” (2004).
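Test compounds were applied to cells in 96-well plates for 48 hours at 5 doses. GI50: concentration for 50% inhibition of growth.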 Activity calls are given as the source filed them. No stated cut-off is given here; in the data, active = GI50 up to about 1.1 µM and inactive = higher.

Tests used:
Assay in all cases: NCI anticancer screen, dose series, 48 h
[1] = test system: KM12
[2] = test system: ACHN
[3] = test system: PC-3
[4] = test system: K562
[5] = test system: M14
[6] = test system: SNB-19
[7] = test system: SK-MEL-2
[8] = test system: NCI-H460
[9] = test system: SW-620
[10] = test system: CCRF-CEM
[11] = test system: OVCAR-3
[12] = test system: HT-29
[13] = test system: OVCAR-8
[14] = test system: SF-268
[15] = test system: RXF 393
[16] = test system: MCF7
[17] = test system: OVCAR-4
[18] = test system: LOX IMVI
[19] = test system: UO-31
[20] = test system: SR

Measured: GI50

Brc1ccc(/C(N=N/C(=N\Sc2ccccc2)c2ccc(Br)cc2)=N/Sc2ccccc2)cc1
inactive: [1] > 62.1 µM | [2] > 61.1 µM | [3] > 100 µM | [4] > 100 µM | [5] > 100 µM | [6] > 100 µM | [7] > 100 µM | [8] > 100 µM | [9] > 100 µM | [10] > 100 µM | [11] > 100 µM | [12] > 100 µM | [13] > 100 µM | [14] > 100 µM | [15] > 100 µM | [16] > 100 µM | [17] > 100 µM | [18] > 100 µM | [19] > 100 µM | [20] > 86.9 µM

CC1=CCC[C@@H]2[C@@](C)(Cc3cc(O)ccc3O)[C@H](C)CC[C@@]12C
inactive: [1] 4.54 µM | [2] 6.25 µM | [3] 4.33 µM | [4] 3.48 µM | [5] 4.94 µM | [6] 7.57 µM | [7] 14.5 µM | [8] 5.83 µM | [9] 6.52 µM | [10] 2.1 µM | [11] 4.69 µM | [12] 17.7 µM | [13] 5.45 µM | [14] 7.43 µM | [15] 6.44 µM | [16] 4.97 µM | [17] 12.1 µM | [18] 4.99 µM | [19] 5.33 µM | [20] 2.38 µM

O=C(CCc1ccc(O)c(O)c1)NCCc1ccccc1
inactive: [1] 49.9 µM | [2] 22 µM | [3] > 37.2 µM | [4] 16.5 µM | [5] > 85.7 µM | [6] > 74.5 µM | [7] 32.7 µM | [8] > 91.2 µM | [9] > 100 µM | [10] 3.17 µM | [11] 30.1 µM | [12] > 45.3 µM | [13] > 47.5 µM | [14] > 32.4 µM | [15] > 100 µM | [16] 15.1 µM | [17] 14.6 µM | [18] 63.2 µM | [19] 10.2 µM | [20] 7.16 µM

Cn1c(=O)c2c(nc3n(Cc4ccccc4)c(=O)c(Br)cn23)n(C)c1=O
inactive: [1] > 100 µM | [2] > 100 µM | [3] > 100 µM | [4] > 100 µM | [5] > 100 µM | [6] > 100 µM | [7] > 100 µM | [8] > 100 µM | [9] > 100 µM | [10] > 100 µM | [11] > 100 µM | [12] > 100 µM | [13] > 100 µM | [14] > 100 µM | [15] > 100 µM | [16] > 100 µM | [17] > 100 µM | [18] > 100 µM | [19] > 100 µM | [20] 1.71 µM

CCOC(=O)C(Cc1cc(OC)c(CC(C(=O)OCC)C(=O)OCC)cc1OC)C(=O)OCC
inactive: [1] > 100 µM | [2] > 100 µM | [3] > 100 µM | [4] > 100 µM | [5] > 100 µM | [6] > 68.5 µM | [7] > 100 µM | [8] > 100 µM | [9] > 100 µM | [10] > 100 µM | [11] > 100 µM | [12] > 100 µM | [13] > 81.1 µM | [14] > 94.4 µM | [15] > 55.7 µM | [16] > 100 µM | [17] > 100 µM | [18] > 100 µM | [19] 44 µM | [20] > 100 µM

Cc1c(NC(=O)CSC(=S)N(C)C)c(=O)n(-c2ccccc2)n1C
inactive: [1] > 100 µM | [2] > 100 µM | [3] > 100 µM | [4] > 100 µM | [5] > 100 µM | [6] > 100 µM | [7] > 100 µM | [8] > 100 µM | [9] > 100 µM | [10] > 100 µM | [11] > 100 µM | [12] > 100 µM | [13] > 100 µM | [14] > 100 µM | [15] > 100 µM | [16] > 100 µM | [17] > 100 µM | [18] > 100 µM | [19] > 100 µM | [20] > 100 µM

C=CCC1(O)c2ccccc2C(=O)c2c(O)ccc(O)c21 (stereo not given)
inactive: [1] 3.94 µM | [2] 13.7 µM | [3] 8.2 µM | [4] 11.1 µM | [5] 5.01 µM | [6] 6.5 µM | [7] 2.68 µM | [8] 3.52 µM | [9] 5.79 µM | [10] 11.6 µM | [11] 5.65 µM | [12] 7.28 µM | [13] 12.4 µM | [14] 10.5 µM | [15] 4.12 µM | [16] 4.11 µM | [17] 11.1 µM | [18] 9.66 µM | [19] 16.8 µM | [20] 5.48 µM
